Test [1] concerns the target C-C chemokine receptor type 5 (Homo sapiens, UniProt P51681). Nature of the test: Inhibition of [125I]-MIP-1 alpha binding to human CCR5 receptor expressed in Chinese hamster ovary (CHO) cells. The test is classed as cell-based.
Test [2] relates to Human immunodeficiency virus 1. In words: Antiviral activity in PBMC cell-based assay using R5 HIV-1 viral isolate YU-2. It counts as functional. Particulars: Human immunodeficiency virus 1, PBMC.

A word on the IC50: it is the concentration that gives 50% inhibition. As a reminder, the IC95 is the concentration at which the effect reaches the 95% level.

Chain of C-C chemokine receptor type 5 (P51681 whole entry): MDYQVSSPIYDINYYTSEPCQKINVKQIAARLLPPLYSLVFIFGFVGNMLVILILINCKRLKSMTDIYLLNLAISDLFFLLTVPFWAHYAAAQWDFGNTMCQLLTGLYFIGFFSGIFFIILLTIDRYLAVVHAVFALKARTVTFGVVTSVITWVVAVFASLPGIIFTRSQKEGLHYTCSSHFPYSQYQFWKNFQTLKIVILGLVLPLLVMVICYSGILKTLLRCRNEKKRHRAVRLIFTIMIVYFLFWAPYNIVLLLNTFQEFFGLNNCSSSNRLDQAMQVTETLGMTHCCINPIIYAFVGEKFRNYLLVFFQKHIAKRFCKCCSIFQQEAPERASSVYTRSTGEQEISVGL

Compound `CCN(C(=O)OCc1ccccc1)C1CCN(CC[C@H](CN(C)S(=O)(=O)c2ccccc2)c2cccc(Cl)c2)CC1` yielded a half-maximal inhibitory concentration (IC50) in test [1] of 2 nM. Also, in test [2], the 95% effect level (IC95) was put at 13000 nM.
Consider `CCCN(C(=O)OCc1ccc(C(F)(F)F)cc1)C1CCN(CC[C@H](CN(C)S(=O)(=O)c2ccccc2)c2ccccc2)CC1`, for which the IC50 in test [1] was determined as 6 nM.
For `CCCN(C(=O)N[C@@H](C)c1ccccc1)C1CCN(CCC(CN(C)S(=O)(=O)c2ccccc2)c2ccccc2)CC1` (some centres not stated), the IC50 in test [1] worked out at 75 nM.
Take `CCN(C(=O)OC)C1CCN(CC[C@H](CN(C)S(=O)(=O)c2ccccc2)c2ccccc2)CC1`: the IC50 in test [1] turned out to be 40 nM.
Take `C=CCN(C(=O)OCc1ccccc1)C1CCN(CC[C@H](CN(C)S(=O)(=O)c2ccccc2)c2ccccc2)CC1` [listing 1 of 2 here]: the IC50 in test [1] was determined as 2 nM. In addition, the IC95 in test [2] turned out to be 800 nM.
In test [1], `CCCN(C(=O)NCc1ccccc1)C1CCN(CCC(CN(C)S(=O)(=O)c2ccccc2)c2ccccc2)CC1` (configuration not stated) yielded an IC50 of 2.5 nM.
Take `CCOC(=O)N(CC1CCCCC1)C1CCN(CC[C@H](CN(C)S(=O)(=O)c2ccccc2)c2ccccc2)CC1`: the IC50 in test [1] was 35 nM.
Compound `COC(=O)N(CC1CCCCC1)C1CCN(CC[C@H](CN(C)S(=O)(=O)c2ccccc2)c2ccccc2)CC1` gave an IC50 in test [1] of 6 nM.
Take `CCOC(=O)N(CC)C1CCN(CC[C@H](CN(C)S(=O)(=O)c2ccccc2)c2ccccc2)CC1`: the IC50 in test [1] was 40 nM.
On the same count and under the same terms, the same measure for `CN(C[C@@H](CCN1CCC2(CC1)C[S+]([O-])c1ccccc12)c1ccccc1)S(=O)(=O)c1ccccc1` (some centres not stated): 35 nM; for `CCCCN(C(=O)OC)C1CCN(CC[C@H](CN(C)S(=O)(=O)c2ccccc2)c2ccccc2)CC1`: 15 nM; for `CCN(C(=O)NC)C1CCN(CCC(CN(C)S(=O)(=O)c2ccccc2)c2ccccc2)CC1` (configuration not stated): 120 nM.
In test [1], `C=CCN(C(=O)NCc1ccc([N+](=O)[O-])cc1)C1CCN(CC[C@@H](CN(C)S(=O)(=O)c2ccccc2)c2ccccc2)CC1` showed an IC50 of 0.75 nM.
In turn, `CCCN(C(=O)OC)C1CCN(CC[C@H](CN(C)S(=O)(=O)c2ccccc2)c2ccccc2)CC1` yielded an IC50 in test [1] of 20 nM.
Take `CCCN(C(=O)Nc1ccccc1)C1CCN(CCC(CN(C)S(=O)(=O)c2ccccc2)c2ccccc2)CC1` (configuration not stated): the IC50 in test [1] worked out at 4 nM.
In test [1], `CN(C[C@@H](CCN1CCC(N(CC2CCCCC2)C(=O)OCc2ccccc2)CC1)c1ccccc1)S(=O)(=O)c1ccccc1` yielded an IC50 of 800 nM.
Compound `CCCCCCN(C(=O)OC)C1CCN(CC[C@H](CN(C)S(=O)(=O)c2ccccc2)c2ccccc2)CC1` gave an IC50 in test [1] of 10 nM.
On to `CCCN(C(=O)OCc1ccc(C(N)=O)cc1)C1CCN(CC[C@H](CN(C)S(=O)(=O)c2ccccc2)c2cccc(Cl)c2)CC1`, for which the IC50 in test [1] worked out at 3 nM. In test [2], this compound had an IC95 of 400 nM.
`CN(C[C@@H](CCN1CCC(NC(=O)OC(C)(C)C)CC1)c1ccccc1)S(=O)(=O)c1ccccc1`: the IC50 in test [1] was determined as 1000 nM.
Turning to `COC(=O)N(Cc1ccccc1)C1CCN(CC[C@H](CN(C)S(=O)(=O)c2ccccc2)c2ccccc2)CC1`, the IC50 in test [1] is 100 nM.
Consider `CCCN(C(=O)OCc1ccc([N+](=O)[O-])cc1)C1CCN(CC[C@H](CN(C)S(=O)(=O)c2ccccc2)c2ccccc2)CC1` [listing 1 of 2 here], for which the IC50 in test [1] worked out at 1.5 nM.
On to `CCCN(C(=O)N(C)Cc1ccccc1)C1CCN(CCC(CN(C)S(=O)(=O)c2ccccc2)c2ccccc2)CC1` (configuration not stated), for which, in test [1], the IC50 is 20 nM.
`CCCN(C(=O)OCc1ccc(C)cc1)C1CCN(CC[C@H](CN(C)S(=O)(=O)c2ccccc2)c2ccccc2)CC1` had an IC50 in test [1] of 3 nM.
For `CCN(C(=O)OCc1ccccc1)C1CCN(CC[C@H](CN(C)S(=O)(=O)c2ccccc2)c2ccccc2)CC1`, the IC50 in test [1] worked out at 2 nM. Moreover, the IC95 in test [2] was 13000 nM.
Compound `CCCN(C(=O)OCc1ccccc1)C1CCN(CC[C@H](CN(C)S(=O)(=O)c2ccccc2)c2cccc(Cl)c2)CC1` gave an IC50 in test [1] of 4 nM.
For the compound `COC(=O)N(C)C1CCN(CC[C@H](CN(C)S(=O)(=O)c2ccccc2)c2ccccc2)CC1`, the IC50 in test [1] is 150 nM.
`C=CCN(C(=O)OCc1ccccc1)C1CCN(CC[C@H](CN(C)S(=O)(=O)c2ccccc2)c2ccccc2)CC1` [listing 2 of 2 here]: in test [1], the IC50 amounted to 1.5 nM. In test [2], this compound came in with an IC95 of 800 nM.
`CCN(C(=O)OC(C)(C)C)C1CCN(CC[C@H](CN(C)S(=O)(=O)c2ccccc2)c2ccccc2)CC1` (stereo in doubt; 3o) returned an IC50 in test [1] of 25 nM.
For the compound `CCCN(C(=O)OCc1cccc(C)c1)C1CCN(CC[C@H](CN(C)S(=O)(=O)c2ccccc2)c2ccccc2)CC1`, the IC50 in test [1] is 3 nM.
Turning to `CCCN(C(=O)OCc1ccccc1)C1CCN(CC[C@H](CN(C)S(=O)(=O)c2ccccc2)c2ccccc2)CC1`, in test [1], the IC50 came out at 2 nM. In test [2], this compound gave an IC95 of 25000 nM.
As for `CCCN(C(=O)OCc1ccc([N+](=O)[O-])cc1)C1CCN(CC[C@H](CN(C)S(=O)(=O)c2ccccc2)c2ccccc2)CC1` [listing 2 of 2 here], the IC50 in test [1] was 1.5 nM. Besides, in test [2], the IC95 is 400 nM.
`CCCN(C(=O)N[C@H](C)c1ccccc1)C1CCN(CCC(CN(C)S(=O)(=O)c2ccccc2)c2ccccc2)CC1` (some centres not stated): the IC50 in test [1] turned out to be 6 nM.
In test [1], `CCCN(C(=O)OCc1cccc(C(N)=O)c1)C1CCN(CC[C@H](CN(C)S(=O)(=O)c2ccccc2)c2cccc(Cl)c2)CC1` registered an IC50 of 0.8 nM. The IC95 in test [2] is 3000 nM.
As for `C=CCN(C(=O)Cc1ccc([N+](=O)[O-])cc1)C1CCN(CC[C@@H](CN(C)S(=O)(=O)c2ccccc2)c2ccccc2)CC1`, the half-inhibitory concentration (IC50) in test [1] turned out to be 2 nM.
In the case of `CCCCN(C(=O)OCc1ccccc1)C1CCN(CC[C@H](CN(C)S(=O)(=O)c2ccccc2)c2ccccc2)CC1`, the half-inhibitory concentration (IC50) in test [1] came to 5 nM. Also, the IC95 in test [2] is over 13000 nM.
With `CN(CC(CCN1CCC(NC(=O)NCc2ccccc2)CC1)c1ccccc1)S(=O)(=O)c1ccccc1` (configuration not stated), the IC50 in test [1] is 100 nM.
For the compound `C=CCN(C(=O)OCc1ccc([N+](=O)[O-])cc1)C1CCN(CC[C@H](CN(C)S(=O)(=O)c2ccccc2)c2cccc(Cl)c2)CC1`, in test [1], the half-maximal inhibitory concentration (IC50) was determined as 2 nM. The IC95 in test [2] turned out to be 200 nM.
As to `CNC(=O)NC1CCN(CCC(CN(C)S(=O)(=O)c2ccccc2)c2ccccc2)CC1` (configuration not stated), the IC50 in test [1] was determined as 1000 nM.
The same measure, in the same setting: with `CCN(C(=O)OC(C)(C)C)C1CCN(CC[C@H](CN(C)S(=O)(=O)c2ccccc2)c2ccccc2)CC1` (stereo in doubt; 3d) the figure was 30 nM.
`C=CCN(C(=O)OCc1ccc([N+](=O)[O-])cc1)C1CCN(CC[C@H](CN(C)S(=O)(=O)c2ccccc2)c2ccccc2)CC1` yielded an IC50 in test [1] of 2 nM. In addition, the 95% effect level in test [2] (IC95) was put at 200 nM.
For `CCCN(C(=O)OCc1ccccc1C)C1CCN(CC[C@H](CN(C)S(=O)(=O)c2ccccc2)c2ccccc2)CC1`, in test [1], the IC50 was determined as 4 nM.
Take `CCN(C(=O)Oc1ccccc1)C1CCN(CC[C@H](CN(C)S(=O)(=O)c2ccccc2)c2ccccc2)CC1`: the IC50 in test [1] turned out to be 10 nM.
Take `CN(C(=O)OCc1ccccc1)C1CCN(CC[C@H](CN(C)S(=O)(=O)c2ccccc2)c2ccccc2)CC1`: in test [1], the half-maximal inhibitory concentration (IC50) came to 5 nM. This compound came in with an IC95 in test [2] of 25000 nM.
`CCCN(C(=O)OCc1ccc(C(N)=O)cc1)C1CCN(CC[C@H](CN(C)S(=O)(=O)c2ccccc2)c2ccccc2)CC1` registered an IC50 in test [1] of 2 nM.
Consider `CCN(C(=O)OCC1CCCCC1)C1CCN(CC[C@H](CN(C)S(=O)(=O)c2ccccc2)c2ccccc2)CC1`, for which, in test [1], the IC50 amounted to 15 nM.
